# Source: patent US20110301235A1, “ORGANOSELENIUM COMPOUNDS AND USES THEREOF” (Alquest Therapeutics, Inc., priority 2009, published 2011)
# Test: Solubility measurements
# Type: physicochemical
# Conditions: 100 mM NaCl buffer, aqueous buffer, kinetic from dmso stock; 25 mM Hepes pH 7.4, 100 mM NaCl; 30 minutes at room temperature; centrifuged; absorbance at 260 nm; read-out: solubility (solubility limit)
# Procedure: A 2-fold serial dilution of compounds was prepared in 25 mM Hepes pH 7.4, 100 mM NaCl. After 30 minutes at room temperature, precipitates were removed by centrifugation at 18,000×G for 15 min. The supernatant was transferred to a microtiter plate and absorbance at 260 nm was determined. The concentration at which there was no longer a linear increase in absorbance was determined as the solubility limit. The compounds in the examples generally had better solubilities than the reference compound 2-phenyl-1,2-benzisoselenazol-3(2H)-one (66-100 μM), with the compounds described in Examples 1-9 having solubilities of 300, 300, 100, 66-100, 300, 300-600, 1000, 1000, and 1000 μM.
row,solubility at 30 min,Structure (SMILES)
1,66 to 100 µM,"O=c1c2ccccc2[se]n1-c1ccccc1 [2-phenyl-1,2-benzisoselenazol-3(2H)-one, reference compound]"

# Same assay, conditions: aqueous buffer, kinetic from dmso stock; 25 mM Hepes pH 7.4, 100 mM NaCl; 30 minutes at room temperature; centrifuged; absorbance at 260 nm; read-out: solubility (solubility limit)
row,Structure (SMILES),solubility at 30 min
1,CCOC(=O)CNC(=O)[C@H](CS[Se]c1ccccc1C(=O)Nc1ccccc1)NC(=O)CC[C@H](N)C(=O)O.Cl [Example 8],1000 µM
2,Cl.N[C@@H](CCC(=O)N[C@@H](CS[Se]c1ccccc1C(=O)Nc1ccccc1)C(=O)NCC(=O)O)C(=O)O [Example 9],1000 µM
3,Cl.NCCS[Se]c1ccccc1C(=O)Nc1ccccc1 [Example 5],300 µM
4,CCOC(=O)[C@@H](N)CS[Se]c1ccccc1C(=O)Nc1ccccc1.Cl [Example 3],100 µM

# Same assay, conditions: pH 7.4, aqueous buffer, kinetic from dmso stock
row,Structure (SMILES),solubility at 30 min
1,CCOC(=O)[C@H](CS[Se]c1ccccc1C(=O)Nc1ccccc1)NC(C)=O [Example 4],66 to 100 µM
2,CC(C)(CO)[C@@H](O)C(=O)NCCC(=O)NCCS[Se]c1ccccc1C(=O)Nc1ccccc1 [Example 1],300 µM
3,CC(=O)N[C@@H](CS[Se]c1ccccc1C(=O)Nc1ccccc1)C(=O)O [Example 2],300 µM
4,O=C(Nc1ccccc1)c1ccccc1[Se]SCCO [Example 6],300 to 600 µM
5,O=C(Nc1ccccc1)c1ccccc1[Se]SCCS(=O)(=O)O [Example 7],1000 µM
